Results reported in ChEMBL document CHEMBL3853264 (Medchemcomm, 2016).
Converted amounts (≈) assume the structure as drawn.

What was measured:
[1] = Intrinsic clearance in rat liver microsomes; type: ADME; settings: read-out: CLH
[2] = Solubility of the compound at pH 6.5; type: physicochemical; settings: buffer
[3] = Dissociation constant, pKa of the compound; type: physicochemical
[4] = Intrinsic clearance in human liver microsomes; type: ADME; settings: read-out: CLH
[5] = Octanol-water partition co-efficient, log D of the compound by shake flask method; type: physicochemical
[6] = Intrinsic clearance in dog liver microsomes; type: ADME, Canis lupus familiaris; settings: read-out: CLH
[7] = Fraction unbound in human plasma; type: ADME, cell-free
[8] = Fraction unbound in rat plasma; type: ADME, cell-free
[9] = Fraction unbound in dog plasma; type: ADME, cell-free, Canis lupus familiaris
[10] = biological target: Solute carrier organic anion transporter family member 1B3 (Homo sapiens, UniProt Q9NPD5); assay: Drug uptake assessed as human OATP1B3-mediated drug accumulation by cell-based assay relative to wild type protein; type: ADME
Sequence of Solute carrier organic anion transporter family member 1B3 (Q9NPD5 whole entry): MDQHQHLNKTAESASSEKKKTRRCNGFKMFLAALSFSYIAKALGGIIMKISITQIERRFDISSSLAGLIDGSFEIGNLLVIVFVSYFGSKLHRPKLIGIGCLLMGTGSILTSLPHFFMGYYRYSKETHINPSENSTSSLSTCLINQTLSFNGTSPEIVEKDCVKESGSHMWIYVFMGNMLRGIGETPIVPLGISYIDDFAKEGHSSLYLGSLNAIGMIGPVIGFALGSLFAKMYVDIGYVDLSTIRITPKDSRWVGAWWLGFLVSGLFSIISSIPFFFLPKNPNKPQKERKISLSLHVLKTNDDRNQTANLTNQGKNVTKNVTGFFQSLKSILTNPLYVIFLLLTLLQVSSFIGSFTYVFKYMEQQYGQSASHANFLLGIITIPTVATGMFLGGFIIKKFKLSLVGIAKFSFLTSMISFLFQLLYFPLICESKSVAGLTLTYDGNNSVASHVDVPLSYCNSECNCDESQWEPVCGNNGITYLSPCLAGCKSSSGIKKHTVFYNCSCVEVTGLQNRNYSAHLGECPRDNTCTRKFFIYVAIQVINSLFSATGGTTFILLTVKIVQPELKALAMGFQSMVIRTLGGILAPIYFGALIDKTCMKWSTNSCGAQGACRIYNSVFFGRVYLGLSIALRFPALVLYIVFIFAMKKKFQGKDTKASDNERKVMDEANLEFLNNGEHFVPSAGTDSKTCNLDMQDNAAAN

[11] = biological target: Solute carrier organic anion transporter family member 2B1 (Homo sapiens, UniProt O94956); assay: Drug uptake assessed as human OATP2B1-mediated drug accumulation by cell-based assay relative to wild type protein; type: ADME
Sequence of Solute carrier organic anion transporter family member 2B1 (O94956 whole entry): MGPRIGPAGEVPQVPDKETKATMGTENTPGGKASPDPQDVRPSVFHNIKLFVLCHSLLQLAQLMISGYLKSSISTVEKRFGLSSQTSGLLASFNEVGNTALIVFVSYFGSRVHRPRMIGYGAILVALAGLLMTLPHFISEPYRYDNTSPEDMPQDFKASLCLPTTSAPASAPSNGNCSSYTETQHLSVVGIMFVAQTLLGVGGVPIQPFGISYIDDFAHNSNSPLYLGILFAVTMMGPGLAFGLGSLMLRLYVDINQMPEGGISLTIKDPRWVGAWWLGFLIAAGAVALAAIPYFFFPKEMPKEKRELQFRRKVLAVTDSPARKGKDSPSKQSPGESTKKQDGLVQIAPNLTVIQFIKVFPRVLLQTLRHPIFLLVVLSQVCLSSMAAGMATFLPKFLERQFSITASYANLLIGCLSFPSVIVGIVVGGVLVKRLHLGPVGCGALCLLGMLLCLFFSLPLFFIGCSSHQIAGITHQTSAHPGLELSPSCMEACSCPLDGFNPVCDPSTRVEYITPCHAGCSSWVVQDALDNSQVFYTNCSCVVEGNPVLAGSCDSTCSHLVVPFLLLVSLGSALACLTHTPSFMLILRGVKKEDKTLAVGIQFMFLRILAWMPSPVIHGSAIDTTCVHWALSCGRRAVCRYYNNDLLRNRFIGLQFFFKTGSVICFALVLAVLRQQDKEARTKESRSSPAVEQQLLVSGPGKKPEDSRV

Cytochrome P450 1A2 = Cytochrome P450 1A2 (Homo sapiens, UniProt P05177); assay: Inhibition of CYP1A2 (unknown origin); type: ADME
Cytochrome P450 2C8 = Cytochrome P450 2C8 (Homo sapiens, UniProt P10632); assay: Inhibition of CYP2C8 (unknown origin); type: ADME
Cytochrome P450 2C9 = Cytochrome P450 2C9 (Homo sapiens, UniProt P11712); assay: Inhibition of CYP2C9 (unknown origin); type: ADME
Sequence of Cytochrome P450 2C9 (P11712 whole entry): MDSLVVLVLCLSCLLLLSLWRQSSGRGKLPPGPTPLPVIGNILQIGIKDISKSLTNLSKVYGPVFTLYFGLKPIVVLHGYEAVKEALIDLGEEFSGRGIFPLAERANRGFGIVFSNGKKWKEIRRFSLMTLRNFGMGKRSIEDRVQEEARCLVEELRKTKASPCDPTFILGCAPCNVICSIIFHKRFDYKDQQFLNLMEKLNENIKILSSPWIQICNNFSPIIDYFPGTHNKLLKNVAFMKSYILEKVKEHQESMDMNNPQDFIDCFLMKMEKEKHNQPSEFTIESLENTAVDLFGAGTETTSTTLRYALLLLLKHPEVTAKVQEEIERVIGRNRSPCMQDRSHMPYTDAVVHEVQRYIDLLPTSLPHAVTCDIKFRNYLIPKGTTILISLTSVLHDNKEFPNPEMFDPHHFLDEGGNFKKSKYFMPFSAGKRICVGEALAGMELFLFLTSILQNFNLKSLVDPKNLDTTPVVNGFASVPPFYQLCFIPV

Cytochrome P450 2C19 = Cytochrome P450 2C19 (Homo sapiens, UniProt P33261); assay: Inhibition of CYP2C19 (unknown origin); type: ADME
Sequence of Cytochrome P450 2C19 (P33261 whole entry): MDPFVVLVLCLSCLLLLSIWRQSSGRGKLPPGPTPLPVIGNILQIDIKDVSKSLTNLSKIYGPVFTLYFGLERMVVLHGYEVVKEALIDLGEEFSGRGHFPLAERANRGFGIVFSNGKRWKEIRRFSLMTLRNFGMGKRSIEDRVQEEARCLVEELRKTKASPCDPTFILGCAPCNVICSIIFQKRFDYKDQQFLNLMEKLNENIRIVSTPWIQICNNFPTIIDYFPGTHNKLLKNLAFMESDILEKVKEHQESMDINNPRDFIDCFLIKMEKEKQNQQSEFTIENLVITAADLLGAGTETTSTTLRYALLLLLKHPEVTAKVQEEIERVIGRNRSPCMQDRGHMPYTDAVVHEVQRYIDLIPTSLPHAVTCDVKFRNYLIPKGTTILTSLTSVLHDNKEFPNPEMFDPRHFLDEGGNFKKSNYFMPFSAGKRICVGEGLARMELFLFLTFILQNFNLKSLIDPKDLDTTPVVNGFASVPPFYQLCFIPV

Cytochrome P450 2D6 = Cytochrome P450 2D6 (Homo sapiens, UniProt P10635); assay: Inhibition of CYP2D6 (unknown origin); type: ADME
Sequence of Cytochrome P450 2D6 (P10635 whole entry): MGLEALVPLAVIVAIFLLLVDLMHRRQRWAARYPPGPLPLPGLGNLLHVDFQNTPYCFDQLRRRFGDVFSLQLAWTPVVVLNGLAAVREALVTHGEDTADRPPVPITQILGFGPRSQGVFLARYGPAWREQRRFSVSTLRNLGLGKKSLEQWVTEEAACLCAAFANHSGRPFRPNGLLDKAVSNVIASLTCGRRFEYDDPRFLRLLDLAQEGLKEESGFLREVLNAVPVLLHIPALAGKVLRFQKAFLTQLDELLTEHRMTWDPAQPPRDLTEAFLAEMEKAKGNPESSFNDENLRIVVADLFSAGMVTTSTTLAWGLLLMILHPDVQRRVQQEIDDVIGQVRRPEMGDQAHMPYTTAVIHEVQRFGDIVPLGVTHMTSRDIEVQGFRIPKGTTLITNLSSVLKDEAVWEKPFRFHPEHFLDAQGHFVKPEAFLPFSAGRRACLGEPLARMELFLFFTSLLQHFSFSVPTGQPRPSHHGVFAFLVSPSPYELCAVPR

[12] = biological target: Solute carrier family 22 member 6 (Homo sapiens, UniProt Q4U2R8); assay: Inhibition of OAT1 (unknown origin)
[13] = biological target: Solute carrier family 22 member 11 (Homo sapiens, UniProt Q9NSA0); assay: Inhibition of OAT4 (unknown origin)
[14] = Cytotoxicity against THLE cells; type: toxicity, cell-based; settings: human
[15] = Mutagenicity in […] by Ames test in presence of […] fraction; type: toxicity
[16] = Mutagenicity in […] by Ames test in absence of […] fraction; type: toxicity
[17] = biological target: Sodium channel protein type 5 subunit alpha (Homo sapiens, UniProt Q14524); assay: Inhibition of human NaV1.5 expressed in HEK293 cells by patch clamp method; type: cell-based
Sequence of Sodium channel protein type 5 subunit alpha (Q14524 whole entry): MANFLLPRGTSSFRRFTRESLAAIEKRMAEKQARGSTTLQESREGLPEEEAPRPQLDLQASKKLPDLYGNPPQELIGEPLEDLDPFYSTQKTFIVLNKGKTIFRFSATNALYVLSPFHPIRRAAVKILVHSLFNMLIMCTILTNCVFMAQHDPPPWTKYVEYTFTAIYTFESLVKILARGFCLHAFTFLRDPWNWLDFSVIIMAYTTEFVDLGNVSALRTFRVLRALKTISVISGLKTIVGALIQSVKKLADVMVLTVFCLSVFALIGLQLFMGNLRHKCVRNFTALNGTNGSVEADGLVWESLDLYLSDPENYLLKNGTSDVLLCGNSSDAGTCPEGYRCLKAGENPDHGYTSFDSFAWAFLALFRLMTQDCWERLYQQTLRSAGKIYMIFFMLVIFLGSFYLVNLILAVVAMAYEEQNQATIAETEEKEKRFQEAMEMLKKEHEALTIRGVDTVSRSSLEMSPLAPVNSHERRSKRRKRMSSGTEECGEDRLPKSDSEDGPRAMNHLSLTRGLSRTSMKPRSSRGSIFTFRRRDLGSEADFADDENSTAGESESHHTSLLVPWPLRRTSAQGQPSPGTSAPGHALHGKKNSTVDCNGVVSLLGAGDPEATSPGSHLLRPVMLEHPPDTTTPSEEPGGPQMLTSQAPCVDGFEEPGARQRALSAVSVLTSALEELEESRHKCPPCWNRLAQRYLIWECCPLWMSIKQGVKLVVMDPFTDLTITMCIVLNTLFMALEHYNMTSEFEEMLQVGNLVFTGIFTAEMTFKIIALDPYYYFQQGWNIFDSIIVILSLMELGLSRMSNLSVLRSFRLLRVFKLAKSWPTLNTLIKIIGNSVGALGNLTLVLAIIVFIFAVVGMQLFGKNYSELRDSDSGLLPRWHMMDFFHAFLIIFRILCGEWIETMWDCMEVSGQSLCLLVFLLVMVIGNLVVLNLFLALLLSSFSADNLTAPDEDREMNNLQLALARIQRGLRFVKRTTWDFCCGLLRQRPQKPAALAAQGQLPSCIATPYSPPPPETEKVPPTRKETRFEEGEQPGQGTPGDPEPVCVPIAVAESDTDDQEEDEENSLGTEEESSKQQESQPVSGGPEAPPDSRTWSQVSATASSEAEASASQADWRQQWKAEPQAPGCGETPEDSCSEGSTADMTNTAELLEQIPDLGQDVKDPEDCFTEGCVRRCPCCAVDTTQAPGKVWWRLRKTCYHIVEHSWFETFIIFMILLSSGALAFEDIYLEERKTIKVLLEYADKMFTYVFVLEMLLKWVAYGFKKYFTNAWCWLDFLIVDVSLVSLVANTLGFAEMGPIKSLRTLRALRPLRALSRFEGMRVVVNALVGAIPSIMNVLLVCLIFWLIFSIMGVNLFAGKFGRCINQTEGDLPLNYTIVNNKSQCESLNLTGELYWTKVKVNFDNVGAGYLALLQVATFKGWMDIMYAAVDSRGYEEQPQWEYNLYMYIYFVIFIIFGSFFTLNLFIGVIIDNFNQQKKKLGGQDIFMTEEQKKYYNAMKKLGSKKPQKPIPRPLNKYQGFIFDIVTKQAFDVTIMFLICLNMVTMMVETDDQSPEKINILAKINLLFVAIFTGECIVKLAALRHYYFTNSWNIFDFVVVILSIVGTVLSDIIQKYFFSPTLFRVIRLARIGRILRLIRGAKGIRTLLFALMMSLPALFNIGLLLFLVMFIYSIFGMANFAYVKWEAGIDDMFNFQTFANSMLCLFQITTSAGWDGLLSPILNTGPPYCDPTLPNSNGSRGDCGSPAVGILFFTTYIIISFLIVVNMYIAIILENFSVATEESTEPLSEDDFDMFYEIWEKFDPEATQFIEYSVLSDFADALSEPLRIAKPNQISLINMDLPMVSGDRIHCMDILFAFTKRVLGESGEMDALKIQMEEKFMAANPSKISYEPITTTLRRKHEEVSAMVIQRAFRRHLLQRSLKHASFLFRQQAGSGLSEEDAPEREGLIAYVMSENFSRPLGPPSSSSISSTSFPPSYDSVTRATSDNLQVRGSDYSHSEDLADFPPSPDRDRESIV

[18] = biological target: Sodium channel protein type 9 subunit alpha (Homo sapiens, UniProt Q15858); assay: Inhibition of NaV1.7 (unknown origin) by electrophysiology assay
[19] = Inhibition of GABAA receptor (unknown origin); parameters: species or system Homo sapiens
[20] = Intrinsic clearance in human hepatocytes assessed per 10^6 cells; type: ADME, cell-based, Hepatocyte; settings: read-out: CLH
[21] = Intrinsic clearance in rat hepatocytes assessed per 10^6 cells; type: ADME, cell-based, Hepatocyte; settings: read-out: CLH
[22] = Plasma clearance in rat at 0.76 mg/kg, iv and 2.3 mg/kg, po; type: ADME, organism-based
[23] = Half life in rat at 0.76 mg/kg, iv and 2.3 mg/kg, po; type: ADME, organism-based; settings: in vivo
[24] = Volume of distribution at steady state in rat at 0.76 mg/kg, iv and 2.3 mg/kg, po; type: ADME, organism-based; settings: in vivo, read-out: Vdss
[25] = Oral bioavailability in rat at 2.3 mg/kg; type: ADME, organism-based; settings: in vivo
[26] = Plasma clearance in rat at 0.5 mg/kg, iv and 1 mg/kg, po; type: ADME, organism-based
[27] = Unbound clearance in rat at 0.5 mg/kg, iv and 1 mg/kg, po; type: ADME, organism-based; settings: in vivo
[28] = Half life in rat at 0.5 mg/kg, iv and 1 mg/kg, po; type: ADME, organism-based; settings: in vivo
[29] = Volume of distribution at steady state in rat at 0.5 mg/kg, iv and 1 mg/kg, po; type: ADME, organism-based; settings: in vivo, read-out: Vdss
[30] = Oral bioavailability in rat at 1 mg/kg; type: ADME, organism-based; settings: in vivo
[31] = Drug excretion in bile of bile duct cannulated rat; type: ADME; settings: read-out: Drug excretion
[32] = Renal clearance in dog; type: ADME, Canis lupus familiaris; settings: in vivo
[33] = Drug metabolism in human liver microsomes assessed as oxidation of chlorophenyl ring; type: ADME
[34] = Drug metabolism in human hepatocytes assessed as oxidation of chlorophenyl ring; type: ADME, cell-based, Hepatocyte
[35] = Drug metabolism in rat assessed as oxidation of chlorophenyl ring; type: ADME
[36] = Drug metabolism in dog assessed as oxidation of chlorophenyl ring; type: ADME, Canis lupus familiaris
[37] = Drug metabolism in human hepatocytes assessed as loss of chlorobenzonitrile moiety in presence of glutathione; type: ADME, cell-based, Hepatocyte
[38] = Drug metabolism in dog assessed as loss of chlorobenzonitrile moiety in presence of glutathione; type: ADME, Canis lupus familiaris
Rattus norvegicus [39] = assay: Toxicity in rat assessed as mortality at 300 mg/kg/day, po measured over 14 days; type: organism-based; settings: in vivo, 336 h
Rattus norvegicus [40] = assay: Toxicity in rat assessed as hypertrophy/hyperplasia of the urothelium at 300 mg/kg/day, po measured over 14 days by microscopic analysis; type: organism-based; settings: in vivo, 336 h
Rattus norvegicus [41] = assay: Toxicity in rat assessed as increase in mitosis in collecting ducts at 300 mg/kg/day, po measured over 14 days by microscopic analysis; type: organism-based; settings: in vivo, 336 h
Rattus norvegicus [42] = assay: Toxicity in rat assessed as hepatocellular hypertrophy with focal necrosis at 300 mg/kg/day, po measured over 14 days by microscopic analysis; type: organism-based; settings: in vivo, 336 h
[43] = Toxicity in po dosed rat measured over 14 days; type: organism-based; settings: in vivo
[44] = Toxicity in po dosed dog measured assessed as drug tolerance measured over 14 days; type: organism-based, Canis lupus familiaris; settings: in vivo, 336 h
Canis familiaris [45] = assay: Hepatotoxicity in male dog assessed as decrease in alanine aminotransferase levels at >= 30 mg/kg/day, po measured over 14 days; type: toxicity, organism-based, Canis lupus familiaris; settings: in vivo, 336 h
[46] = Toxicity in dog assessed as histologic change in testes at 300 mg/kg/day, po measured over 14 days; type: organism-based, Canis lupus familiaris; settings: in vivo, 336 h
Canis familiaris [47] = assay: Hepatotoxicity in male dog assessed as pathological changes at >= 30 mg/kg/day, po measured over 14 days; type: toxicity, organism-based, Canis lupus familiaris; settings: in vivo, 336 h
Canis familiaris [48] = assay: Hepatotoxicity in female dog assessed as pathological changes at >= 100 mg/kg/day, po measured over 14 days; type: toxicity, organism-based, Canis lupus familiaris; settings: in vivo, 336 h
[49] = Unbound Cmax in dog at 30 mg/kg, po administered as single dose measured on day 14; type: ADME, organism-based, Canis lupus familiaris; settings: in vivo
[50] = Average plasma concentration in dog at 30 mg/kg, po administered as single dose measured on day 14; type: ADME, organism-based, Canis lupus familiaris; settings: in vivo
Rattus norvegicus [51] = assay: Cardiovascular toxicity in rat assessed as decrease in body temperature at 10 mg/kg, po measured over 14 days; type: organism-based; settings: in vivo, 336 h
Rattus norvegicus [52] = assay: Cardiovascular toxicity in rat assessed as small biphasic change in blood pressure at 30 to 100 mg/kg, po measured over 14 days; type: organism-based; settings: in vivo, 336 h
[53] = Unbound Cmax in rat at 10 mg/kg, po administered as single dose measured on day 14; type: ADME, organism-based; settings: in vivo
[54] = Average plasma concentration in rat at 10 mg/kg, po administered as single dose measured on day 14; type: ADME, organism-based; settings: in vivo
[55] = Unbound Cmax in rat at 30 mg/kg, po administered as single dose measured on day 14; type: ADME, organism-based; settings: in vivo

N#Cc1ccc(Oc2ccc(S(=O)(=O)Nc3ccc(F)cn3)cc2C#N)cc1Cl
microsomal CLint [1]: < 14 µL/min/mg
solubility [2]: 7.7 µM (≈ 3.3 µg/mL)
pKa [3]: 5.8
microsomal CLint [4]: < 13 µL/min/mg
logD [5]: 1.8
microsomal CLint [6]: < 18 µL/min/mg
fraction unbound [7]: 0.0012
fraction unbound [8]: 0.0021
fraction unbound [9]: 0.0041
fold change (FC) [10]: 1.067
fold change (FC) [11]: 1.232
IC50 (Cytochrome P450 1A2): > 30 µM
IC50 (Cytochrome P450 2C8): 11.9 µM
IC50 (Cytochrome P450 2C9): 4.2 µM
IC50 (Cytochrome P450 2C19): 17.2 µM
IC50 (Cytochrome P450 2D6): > 30 µM
IC50 [12]: 14 µM
IC50 [13]: 14 µM
Activity [14]: 103 µM
Activity [15]: Non-Toxic
Activity [16]: Non-Toxic
IC50 [17]: > 30 µM
IC50 [18]: > 30 µM
Ki [19]: 4.8 µM
hepatocyte CLint [20]: 23 µL/min/1e6 cells
hepatocyte CLint [21]: 10 µL/min/1e6 cells
clearance [22]: 0.48 mL/min/kg
half-life [23]: 7.1 h
Vd [24]: 0.25 L/kg
bioavailability [25]: 100%
clearance [26]: 0.39 mL/min/kg
CL free [27]: 95 mL/min/kg
half-life [28]: 6.7 h
Vd [29]: 0.18 L/kg
bioavailability [30]: 100%
dose excreted [31]: < 0.5%
CL renal [32]: 0.0001 mL/min/kg
Drug metabolism [33]: Metabolite_Detected
Drug metabolism [34]: Metabolite_Detected
Drug metabolism [35]: Metabolite_Detected
Drug metabolism [36]: Metabolite_Notdetected
Drug metabolism [37]: Metabolite_Detected
Drug metabolism [38]: Metabolite_Detected
Activity (Rattus norvegicus [39]): Toxic
Activity (Rattus norvegicus [40]): Toxic
Activity (Rattus norvegicus [41]): Toxic
Activity (Rattus norvegicus [42]): Toxic
MTD at 336 h [43]: 100 mg/kg
Activity [44]: <= 300 mg kg-1
Activity (Canis familiaris [45]): Toxic
Activity [46]: Toxic
Activity (Canis familiaris [47]): Non-Toxic
Activity (Canis familiaris [48]): Non-Toxic
fCmax [49]: 7.419 µM
Cave [50]: 3980 nM
Activity (Rattus norvegicus [51]): Toxic
Activity (Rattus norvegicus [52]): Toxic
fCmax [53]: 59 nM
Cave [54]: 41 nM
fCmax [55]: 179 nM
